From paper PMC8467848 (Molecules, 2021)
Counter-ions that a name gives are not always drawn.

Key:
[1] = target: T1, μ-opioid receptor (Mus musculus, UniProt P42866); test: biochemical; assay type: binding
T1 construct: performed on mouse brain homogenates in the presence of ^3H-DAMGO for μ-receptor; from tissue; host or cells: mouse brain membranes / homogenates

[2] = target: T2, δ-opioid receptor (Mus musculus, UniProt P32300); test: biochemical; assay type: binding
T2 construct: performed on mouse brain homogenates; from tissue; host or cells: mouse brain membranes / homogenates

[3] = target: T3, κ-opioid receptor (Mus musculus, UniProt P33534); test: biochemical; assay type: binding
T3 construct: performed on mouse brain homogenates; from tissue; host or cells: mouse brain membranes / homogenates
T3 sequence (P33534 whole entry): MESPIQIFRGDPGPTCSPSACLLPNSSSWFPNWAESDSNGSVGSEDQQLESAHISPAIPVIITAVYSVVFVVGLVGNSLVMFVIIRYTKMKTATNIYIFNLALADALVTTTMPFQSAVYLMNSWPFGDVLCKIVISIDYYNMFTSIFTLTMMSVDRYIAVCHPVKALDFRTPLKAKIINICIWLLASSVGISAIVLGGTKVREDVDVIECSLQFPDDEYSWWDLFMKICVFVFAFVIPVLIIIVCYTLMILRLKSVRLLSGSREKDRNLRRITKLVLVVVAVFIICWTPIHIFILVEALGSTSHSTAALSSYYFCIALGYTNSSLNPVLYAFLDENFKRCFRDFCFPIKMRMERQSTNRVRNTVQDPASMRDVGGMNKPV

T2 sequence (P32300 whole entry): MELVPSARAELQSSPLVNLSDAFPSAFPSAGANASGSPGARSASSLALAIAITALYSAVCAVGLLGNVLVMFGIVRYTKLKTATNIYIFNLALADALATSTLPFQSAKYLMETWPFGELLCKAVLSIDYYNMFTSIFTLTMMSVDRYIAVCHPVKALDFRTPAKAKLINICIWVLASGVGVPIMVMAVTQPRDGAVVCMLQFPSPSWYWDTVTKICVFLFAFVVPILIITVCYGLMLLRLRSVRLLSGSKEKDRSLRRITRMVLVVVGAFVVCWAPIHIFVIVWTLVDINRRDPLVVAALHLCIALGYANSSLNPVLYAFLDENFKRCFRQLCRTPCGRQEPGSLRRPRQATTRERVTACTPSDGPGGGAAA
T1 sequence (P42866 whole entry): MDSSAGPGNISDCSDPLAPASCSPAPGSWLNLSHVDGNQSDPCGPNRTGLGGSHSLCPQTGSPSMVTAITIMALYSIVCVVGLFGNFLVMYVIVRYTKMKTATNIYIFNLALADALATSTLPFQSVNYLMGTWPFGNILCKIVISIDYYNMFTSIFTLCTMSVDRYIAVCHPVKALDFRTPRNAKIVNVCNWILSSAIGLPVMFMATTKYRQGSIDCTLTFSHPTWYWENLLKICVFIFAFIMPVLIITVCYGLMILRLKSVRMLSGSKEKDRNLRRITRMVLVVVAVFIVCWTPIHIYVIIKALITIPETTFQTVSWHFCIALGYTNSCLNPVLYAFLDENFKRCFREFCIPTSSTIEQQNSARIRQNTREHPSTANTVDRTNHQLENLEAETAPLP

SMILES: CCC(=O)N1C2CCC1C1CCC2N1CC=C1CCc2ccccc21 (as salt: hydrochloride)
- melting point: 132 to 134 °C

SMILES: CCC(=O)N1C2CCC1C1CCC2N1CC=C1CCc2cc(F)ccc21 (as salt: hydrochloride)
- melting point: 181 to 183 °C

SMILES: CCC(=O)N1C2CCC1C1CCC2N1CC=C1CCc2cc(Cl)ccc21 (as salt: hydrochloride)
- melting point: 170 to 173 °C

SMILES: CCC(=O)N1C2CCC1C1CCC2N1CC=C1CCc2cc(Br)ccc21 (as salt: hydrochloride)
- melting point: 167 to 170 °C

SMILES: CCC(=O)N1C2CCC3C1CCC2N3CC=C1CCc2ccccc21 (as salt: hydrochloride)
- melting point: 167 to 170 °C

SMILES: CCC(=O)N1C2CCC3C1CCC2N3CC=C1CCc2cc(Cl)ccc21 (as salt: hydrochloride)
- melting point: 179 to 181 °C

SMILES: CCC(=O)N1C2CCC3C1CCC2N3CC=C1CCc2cc(Br)ccc21 (as salt: hydrochloride)
- melting point: 177 to 179 °C

SMILES: CCC(=O)N1C2CCC3C1CCC2N3CC=C1CCc2cc(F)ccc21 (as salt: hydrochloride) [Compound 25, 2-Propionyl-7-[(E)-1-(2-(5-fluoro-2,3-dihydro-1H-inden-1-ylidene)ethyl]-2,7-diazatricyclo[4.2.0.0^3,8]decane]
- melting point: 131 to 133 °C

SMILES: CCC(=O)N1C2CCC1C1CCC2N1Cc1cc2ccccc2[nH]1 (as salt: hydrochloride) [Compound 53, 9-Propionyl-10-(1H-indol-2-ylmethyl)-9, 10-diazatricyclo[4.2.1.1^2.5]decane]
- melting point: 106 °C

SMILES: CCC(=O)N1C2CCC3C1CCC2N3Cc1cc2ccccc2[nH]1 (as salt: hydrochloride) [Compound 54, 2-Propionyl-7-(1H-indol-2-ylmethyl)-2,7-diazatricyclo[4.4.0.0^3.8]decane]
- melting point: 54 °C

SMILES: CCC(=O)N1C2CCC1C1CCC2N1Cc1cnc2ccccc2n1 (as salt: hydrochloride) [Compound 59, 9-Propionyl-10-(quinoxalyn-2-ylmethyl)-9,10-diazatricyclo[4.2.1.1^2,5]decane]
- melting point: 128 °C

SMILES: CCC(=O)N1C2CCC1C1CCC2N1Cc1cc2ccccc2[nH]1 [Compound 53, 9-Propionyl-10-(1H-indol-2-ylmethyl)-9, 10-diazatricyclo[4.2.1.1^2.5]decane]
- Ki [1]: 22 ± 3 nM
- μ-affinity / binding in words [1]: nanomolar range
- Ki [2]: > 1000 nM
- affinity towards δ-receptors in words [2]: negligible affinity
- Ki [3]: > 1000 nM
- affinity towards κ-receptors in words [3]: negligible affinity

SMILES: CCC(=O)N1C2CCC3C1CCC2N3Cc1cc2ccccc2[nH]1 [Compound 54, 2-Propionyl-7-(1H-indol-2-ylmethyl)-2,7-diazatricyclo[4.4.0.0^3.8]decane]
- Ki [1]: 500 ± 45 nM
- fold lower μ-affinity compared to its isomer [1]: 23 fold
- Ki [2]: > 1000 nM
- Ki [3]: > 1000 nM

SMILES: CCC(=O)N1C2CCC3C1CCC2N3Cc1ccc2ccccc2n1 [Compound 58, 2-Propionyl-7-(quinolyn-2-ylmethyl)-2,7-diazatricyclo[4.2.0.0^3,8]decane]
- Ki [1]: 490 ± 46 nM
- Ki [2]: > 1000 nM
- Ki [3]: > 1000 nM

SMILES: CCC(=O)N1C2CCC1C1CCC2N1Cc1cnc2ccccc2n1 [Compound 59, 9-Propionyl-10-(quinoxalyn-2-ylmethyl)-9,10-diazatricyclo[4.2.1.1^2,5]decane]
- Ki [1]: > 1000 nM
- Ki [2]: > 1000 nM
- Ki [3]: > 1000 nM
